As a reminder, the pIC50 is the IC50 on a negative log10 scale, so that one unit is a factor of ten.

pIC50: −log10 of the molar value.

Chain of kinase domain of IRE1 alpha (His-tagged kinase dead construct KR, AA G547-L977, D688N) (O75460 547-977 D688N): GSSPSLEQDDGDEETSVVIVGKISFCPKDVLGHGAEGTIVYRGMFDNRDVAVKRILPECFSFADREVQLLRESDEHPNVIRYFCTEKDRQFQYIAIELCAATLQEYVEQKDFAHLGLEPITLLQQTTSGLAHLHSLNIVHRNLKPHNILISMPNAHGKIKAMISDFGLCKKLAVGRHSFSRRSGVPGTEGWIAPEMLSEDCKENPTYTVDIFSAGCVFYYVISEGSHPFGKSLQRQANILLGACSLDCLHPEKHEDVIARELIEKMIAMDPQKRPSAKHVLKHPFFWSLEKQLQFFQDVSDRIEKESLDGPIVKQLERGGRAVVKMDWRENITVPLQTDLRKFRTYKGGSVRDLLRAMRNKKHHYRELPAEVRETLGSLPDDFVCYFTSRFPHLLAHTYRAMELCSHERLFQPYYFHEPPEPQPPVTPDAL

This assay addresses kinase domain of IRE1 alpha (His-tagged kinase dead construct KR, AA G547-L977, D688N) (Homo sapiens (Human), UniProt O75460, D688N). In words: IRE1α TR-FRET competition binding assay. The note with it: competition with Kinase Tracer 236, 0.1 μM; one hour at room temperature. An outline of the steps: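 Compound displacement of an ATP-site fluorescent tracer (0.1 μM final) measured by TR-FRET after 1 h at room temperature. Protein, a His-tagged D688N kinase/RNase construct from Sf9 cells (0.006 μM final), was pre-bound 1 h at 4° C to Eu anti-His antibody (0.002 μM) in pH 7.5 HEPES buffer.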
Regarding `O=S(=O)(Cc1cccnc1)Nc1c(F)cc(Oc2ncccc2-c2ccnc(N[C@@H]3CNC[C@@H](F)C3)n2)c(F)c1F` [Compound 256, 1-(Pyridin-3-yl)-N-(2,3,6-trifluoro-4-((3-(2-(((3S,5S)-5-fluoropiperidin-3-yl)amino)pyrimidin-4-yl)pyridin-2-yl)oxy)phenyl)methanesulfonamide], the negative-log IC50 (pIC50) was 9.00.

`O=S(=O)(Cc1ccc(C(F)(F)F)cc1)Nc1c(F)cc(Oc2ncccc2-c2ccnc(N[C@@H]3CNC[C@@H](F)C3)n2)c(F)c1F` [Compound 370, N-(2,3,6-Trifluoro-4-((3-(2-(((3S,5S)-5-fluoropiperidin-3-yl)amino)pyrimidin-4-yl)pyridin-2-yl)oxy)phenyl)-1-(4-(trifluoromethyl)phenyl)methanesulfonamide] had a pIC50 of 8.70. As for `CCC1CCN(c2ccc(Oc3ncccc3-c3ccnc(N[C@H]4CCCNC4)n3)c(F)c2F)C1=O` (single isomer, unassigned) [Compound 249], the figure is 6.80; as for `O=S(=O)(Cc1ccc(F)cc1)Nc1c(F)cc(Oc2ncccc2-c2ccnc(N[C@@H]3CNCC(CF)C3)n2)c(F)c1F` (stereo in doubt) [Compound 316, 1-(4-Fluorophenyl)-N-(2,3,6-trifluoro-4-((3-(2-(((3S,5S)-5-(fluoromethyl)piperidin-3-yl)amino)pyrimidin-4-yl)pyridin-2-yl)oxy)phenyl)methanesulfonamide], 9.46; as for `N#Cc1cc(Cl)ccc1CS(=O)(=O)Nc1c(F)cc(Oc2ncccc2-c2ccnc(N[C@@H]3CNC[C@@H](F)C3)n2)c(F)c1F` [Compound 362], 9.70. On to `COc1cccc(S(=O)(=O)Nc2ccc(Oc3ncccc3-c3ccnc(N[C@H]4CCCNC4)n3)c(F)c2F)c1` [Compound 212, (S)-N-(2,3-difluoro-4-((3-(2-(piperidin-3-ylamino)pyrimidin-4-yl)pyridin-2-yl)oxy)phenyl)-3-methoxybenzenesulfonamide], for which the pIC50 is 7.60. As for `COc1ccc(CS(=O)(=O)Nc2c(F)cc(Oc3ncccc3-c3ccnc(N[C@@H]4CNC[C@@](C)(F)C4)n3)c(F)c2F)cc1` [Compound 304, 1-(4-Methoxyphenyl)-N-(2,3,6-trifluoro-4-((3-(2-(((3S,5S)-5-fluoro-5-methylpiperidin-3-yl)amino)pyrimidin-4-yl)pyridin-2-yl)oxy)phenyl)methanesulfonamide], the figure is 9.64.

In turn, `O=S(=O)(Nc1ccc(Oc2ncccc2-c2ccnc(N[C@H]3CCCNC3)n2)c(F)c1F)c1ccccc1` [Compound 218, (S)-N-(2,3-difluoro-4-((3-(2-(piperidin-3-ylamino)pyrimidin-4-yl)pyridin-2-yl)oxy)phenyl)benzenesulfonamide] gave a pIC50 of 7.80. This pIC50 is 1.84 log units lower than that of the compound before. The same measure for `C[C@@]1(F)CNC[C@@H](Nc2nccc(-c3cccnc3Oc3cc(F)c(NS(=O)(=O)Cc4ccc(F)cc4F)c(F)c3F)n2)C1` [Compound 281, 1-(2,4-Difluorophenyl)-N-(2,3,6-trifluoro-4-((3-(2-(((3S,5S)-5-fluoro-5-methylpiperidin-3-yl)amino)pyrimidin-4-yl)pyridin-2-yl)oxy)phenyl)methanesulfonamide]: 9.47. As for `N#Cc1ccc(CS(=O)(=O)Nc2ccc(Oc3ncccc3-c3ccnc(N[C@H]4CCCNC4)n3)c(F)c2F)cc1` [Compound 250, (S)-1-(4-Cyanophenyl)-N-(2,3-difluoro-4-((3-(2-(piperidin-3-ylamino)pyrimidin-4-yl)pyridin-2-yl)oxy)phenyl)methanesulfonamide], the figure is 8.31; as for `O=S(=O)(Cc1ccccc1C(F)(F)F)Nc1c(F)cc(Oc2ncccc2-c2ccnc(N[C@@H]3CNC[C@@H](F)C3)n2)c(F)c1F` [Compound 373, N-(2,3,6-Trifluoro-4-((3-(2-(((3S,5S)-5-fluoropiperidin-3-yl)amino)pyrimidin-4-yl)pyridin-2-yl)oxy)phenyl)-1-(2-(trifluoromethyl)phenyl)methanesulfonamide], 9.52.

The values above are taken from patent US12071425B2 (Genentech, Inc., priority 2018, dated 2024).
